Results from ChEMBL document CHEMBL1201862, “PubChem BioAssay data set” (2004).
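Briefly, cells in 96-well plates were exposed to five compound concentrations for 48 h, and endpoints were estimated by linear interpolation. GI50 marks 50% less growth.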 Activity calls are given as the source filed them. Rule as the data show it: active = GI50 up to about 1.1 µM and inactive = higher.

Columns and labels:
Experiment in all cases: NCI tumour cell line growth inhibition, 48 h
[1] = system: SR
[2] = system: SNB-75
[3] = system: CCRF-CEM
[4] = system: HCT-116
[5] = system: DMS-114
[6] = system: HOP-18
[7] = system: TK-10
[8] = system: M19-MEL
[9] = system: SNB-19
[10] = system: U-251
[11] = system: HT-29
[12] = system: SN12C
[13] = system: SF-539
[14] = system: OVCAR-4
[15] = system: DLD-1
[16] = system: UO-31
[17] = system: SF-295
[18] = system: KM12
[19] = system: SK-MEL-2
[20] = system: NCI-H23
[21] = system: CAKI-1
[22] = system: OVCAR-3
[23] = system: HL-60
[24] = system: SF-268
[25] = system: RXF 393
[26] = system: XF498
[27] = system: HCC 2998
[28] = system: SK-MEL-5
[29] = system: NCI-H460
[30] = system: COLO 205
[31] = system: HCT-15
[32] = system: MOLT-4
[33] = system: 786-0
[34] = system: A498
[35] = system: OVCAR-8
[36] = system: DMS-273
[37] = system: RPMI-8226
[38] = system: ACHN
[39] = system: SK-MEL-28
[40] = system: M14
[41] = system: KM-20L2
[42] = system: EKVX
[43] = system: Malme-3M
[44] = system: SW-620
[45] = system: IGROV-1
[46] = system: A549
[47] = system: SK-OV-3
[48] = system: HOP-92
[49] = system: NCI-H226
[50] = system: K562
[51] = system: LXFL 529
[52] = system: NCI-H522
[53] = system: OVCAR-5
[54] = system: HOP-62
[55] = system: UACC-257
[56] = system: LOX IMVI
[57] = system: UACC-62
[58] = system: SNB-78
[59] = system: NCI/ADR-RES
[60] = system: MCF7

CC(C)=CCCc1c(C)ccc2c1C(=O)C(=O)C(C(C)C)=C2
GI50 [1]: 3.5 µM (inactive)
GI50 [2]: 9.62 µM (inactive)
GI50 [3]: 0.661 µM (active)
GI50 [4]: 3.57 µM (inactive)
GI50 [5]: 4.2 µM (inactive)
GI50 [6]: 4.02 µM (inactive)
GI50 [7]: 4.41 µM (inactive)
GI50 [8]: 3.87 µM (inactive)
GI50 [9]: > 22 µM (inactive)
GI50 [10]: > 22 µM (inactive)
GI50 [11]: 7.11 µM (inactive)
GI50 [12]: 9.06 µM (inactive)
GI50 [13]: 4.27 µM (inactive)
GI50 [14]: 3.84 µM (inactive)
GI50 [15]: 3.48 µM (inactive)
GI50 [16]: 6.98 µM (inactive)
GI50 [17]: > 22 µM (inactive)
GI50 [18]: > 22 µM (inactive)
GI50 [19]: 4.1 µM (inactive)
GI50 [20]: 3.94 µM (inactive)
GI50 [21]: 4.16 µM (inactive)
GI50 [22]: 3.76 µM (inactive)
GI50 [23]: 1.03 µM (active)
GI50 [24]: 5.71 µM (inactive)
GI50 [25]: 3.68 µM (inactive)
GI50 [26]: 3.77 µM (inactive)
GI50 [27]: > 22 µM (inactive)
GI50 [28]: 20 µM (inactive)
GI50 [29]: 10.7 µM (inactive)
GI50 [30]: 7.24 µM (inactive)
GI50 [31]: 3.85 µM
GI50 [32]: 1.36 µM (inactive)
GI50 [33]: 3.95 µM (inactive)
GI50 [34]: > 22 µM (inactive)
GI50 [35]: 3.85 µM (inactive)
GI50 [36]: 3.97 µM (inactive)
GI50 [37]: 0.839 µM (active)
GI50 [38]: 3.8 µM (inactive)
GI50 [39]: 3.87 µM (inactive)
GI50 [40]: 4.24 µM (inactive)
GI50 [41]: > 22 µM (inactive)
GI50 [42]: > 22 µM (inactive)
GI50 [43]: 3.73 µM (inactive)
GI50 [44]: 3.86 µM (inactive)
GI50 [45]: 9.84 µM (inactive)
GI50 [46]: > 22 µM (inactive)
GI50 [47]: > 22 µM (inactive)
GI50 [48]: 3.26 µM (inactive)
GI50 [49]: > 22 µM (inactive)
GI50 [50]: 3.87 µM (inactive)
GI50 [51]: 3.62 µM (inactive)
GI50 [52]: 3.4 µM (inactive)

C1OCC2S[C@@H]3COCO[C@@H]3C2O1 (stereo partly drawn)
GI50 [1]: > 100 µM (inactive)
GI50 [2]: > 100 µM (inactive)
GI50 [3]: > 100 µM (inactive)
GI50 [4]: > 100 µM (inactive)
GI50 [5]: > 100 µM (inactive)
GI50 [7]: > 100 µM (inactive)
GI50 [8]: > 100 µM (inactive)
GI50 [9]: > 100 µM (inactive)
GI50 [10]: > 100 µM (inactive)
GI50 [11]: > 100 µM (inactive)
GI50 [12]: > 100 µM (inactive)
GI50 [13]: > 100 µM (inactive)
GI50 [53]: > 100 µM (inactive)
GI50 [14]: > 100 µM (inactive)
GI50 [15]: > 100 µM (inactive)
GI50 [16]: > 100 µM (inactive)
GI50 [17]: > 100 µM (inactive)
GI50 [18]: > 100 µM (inactive)
GI50 [20]: > 100 µM (inactive)
GI50 [21]: > 100 µM (inactive)
GI50 [22]: > 100 µM (inactive)
GI50 [54]: > 100 µM (inactive)
GI50 [23]: > 100 µM (inactive)
GI50 [24]: > 100 µM (inactive)
GI50 [25]: > 100 µM (inactive)
GI50 [26]: > 100 µM (inactive)
GI50 [27]: > 100 µM (inactive)
GI50 [28]: > 100 µM (inactive)
GI50 [29]: > 100 µM (inactive)
GI50 [30]: > 100 µM (inactive)
GI50 [31]: > 100 µM
GI50 [32]: > 100 µM (inactive)
GI50 [33]: > 100 µM (inactive)
GI50 [34]: > 100 µM (inactive)
GI50 [35]: > 100 µM (inactive)
GI50 [36]: > 100 µM (inactive)
GI50 [37]: > 100 µM (inactive)
GI50 [38]: > 100 µM (inactive)
GI50 [39]: > 100 µM (inactive)
GI50 [40]: > 100 µM (inactive)
GI50 [41]: > 100 µM (inactive)
GI50 [55]: > 100 µM (inactive)
GI50 [42]: > 100 µM (inactive)
GI50 [43]: > 100 µM (inactive)
GI50 [56]: > 100 µM (inactive)
GI50 [57]: > 100 µM (inactive)
GI50 [46]: > 100 µM (inactive)
GI50 [47]: > 100 µM (inactive)
GI50 [58]: > 100 µM (inactive)
GI50 [49]: > 100 µM (inactive)
GI50 [50]: > 100 µM (inactive)
GI50 [51]: > 100 µM (inactive)
GI50 [52]: > 100 µM (inactive)

C=CCCCCn1c2ccccc2c2c(C)c3cnccc3c(C)c21
GI50 [2]: 3.88 µM (inactive)
GI50 [3]: 4.04 µM (inactive)
GI50 [4]: 4.63 µM (inactive)
GI50 [5]: 3.94 µM (inactive)
GI50 [6]: 16.1 µM (inactive)
GI50 [9]: 15.3 µM (inactive)
GI50 [10]: 12.5 µM (inactive)
GI50 [11]: 7 µM (inactive)
GI50 [12]: 8.67 µM (inactive)
GI50 [13]: 12.5 µM (inactive)
GI50 [59]: 5.07 µM (inactive)
GI50 [53]: 16.9 µM (inactive)
GI50 [14]: 6.5 µM (inactive)
GI50 [15]: 7.11 µM (inactive)
GI50 [16]: 5.75 µM (inactive)
GI50 [17]: 8.71 µM (inactive)
GI50 [60]: 7.73 µM (inactive)
GI50 [18]: 8.47 µM (inactive)
GI50 [19]: 13.4 µM (inactive)
GI50 [20]: 4.63 µM (inactive)
GI50 [21]: 8.69 µM (inactive)
GI50 [22]: 4.99 µM (inactive)
GI50 [54]: 16.2 µM (inactive)
GI50 [23]: 2.07 µM (inactive)
GI50 [24]: 11.3 µM (inactive)
GI50 [25]: 6.25 µM (inactive)
GI50 [26]: 1.95 µM (inactive)
GI50 [27]: 10.1 µM (inactive)
GI50 [28]: 5.08 µM (inactive)
GI50 [29]: 6.64 µM (inactive)
GI50 [30]: 3.96 µM (inactive)
GI50 [31]: 6.27 µM
GI50 [32]: 2.83 µM (inactive)
GI50 [34]: 5.86 µM (inactive)
GI50 [35]: 3.93 µM (inactive)
GI50 [36]: 5.14 µM (inactive)
GI50 [37]: 2.81 µM (inactive)
GI50 [39]: 9.82 µM (inactive)
GI50 [41]: 6.38 µM (inactive)
GI50 [55]: 4.5 µM (inactive)
GI50 [42]: 12.9 µM (inactive)
GI50 [43]: 9.02 µM (inactive)
GI50 [44]: 4.54 µM (inactive)
GI50 [45]: 11.7 µM (inactive)
GI50 [56]: 7.55 µM (inactive)
GI50 [57]: 11.2 µM (inactive)
GI50 [46]: 8.99 µM (inactive)
GI50 [47]: 16.5 µM (inactive)
GI50 [48]: 4.06 µM (inactive)
GI50 [58]: 12.1 µM (inactive)
GI50 [49]: 10.9 µM (inactive)
GI50 [50]: 3.32 µM (inactive)
GI50 [52]: 3.97 µM (inactive)
